Test results published in paper PMC10223284, “Category-Based Toxicokinetic Evaluations of Data-Poor Per- and Polyfluoroalkyl Substances (PFAS) using Gas Chromatography Coupled with Mass Spectrometry” (Toxics, 2023).
Several values for one entry are separate records, joined by “and”; a condition that tells them apart may be missing. Equal entries are not always repeated. Where two headings read alike, the source gives them in different places.

Assays:
[1] = system: pooled human cryopreserved primary hepatocyte suspensions; assay: Hepatic metabolic stability (hepatocyte clearance) assay, substrate depletion; type: in vitro ADME; conditions: for Linear Regression Results, Best-Fit Values, Slope: hepatocyte time course
Method in brief: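 Substrate depletion of 1 μM compound, 37 °C, with pooled human hepatocytes (50-donor, 50,000 cells/100 μL) in William's E; samples quenched in acetonitrile up to 240 min, triplicate time points. Intrinsic clearance (μL/min/million hepatocytes) and half-life derived from semi-log slope, background-adjusted using media-only and inactivated-cell controls; compounds with ≥50% abiotic loss at T120 excluded.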

[2] = Abiotic loss in negative controls of the hepatocyte clearance assay (cell-free media, metabolically inactivated hepatocytes); type: in vitro ADME; conditions: for Hep_Stab_Fail: flag for stability failure in hepatocyte clearance assay controls (1 or Fst = fail, 0 = pass)
Method in brief: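 Abiotic stability was checked with media-only and inactivated-hepatocyte controls, run at T0 and T240 or, on rerun, at more time points. Compound at 1 μM, 37 °C, acetonitrile quench. Loss rates served for background subtraction, and ≥50% loss by T120 meant exclusion.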

human primary cells = conditions: cited from earlier work
human plasma [3] = assay: Ultracentrifugation (UC) plasma protein binding assay, fraction unbound in plasma (fup); conditions: for Aqueous Fraction / Aqueous Fraction, Run-specific Avg: amount measured in aqueous fraction after ultracentrifugation, unit not given; for Aqueous Fraction: replicates A, B, C; for Aqueous Fraction, Run-specific Avg: run average; for fup: human plasma, 10 μM, ultracentrifugation, 37 °C; for Fup.Med: median fraction unbound in plasma; for Fup.Med / Fup.point: UC assay Level4; for Fup.point: point estimate of fraction unbound in plasma
in vitro = conditions: both, human, plasma
human plasma [4] = assay: Chemical stability in plasma over the UC assay time course (T5hr/T1hr); conditions: for Time 1 hr / Time 1 hr, Run-specific Avg: amount measured in plasma sample at 1 hr; for Time 1 hr / Time 5 hr: replicates A, B, C; for Time 1 hr / Time 1 hr, Run-specific Avg / Time 5 hr / Time 5 hr, Run-specific Avg: unit not given; for Time 1 hr, Run-specific Avg / Time 5 hr, Run-specific Avg: run average; for Time 5 hr / Time 5 hr, Run-specific Avg: amount measured in plasma sample at 5 hr; for PPB_Stab_Fail: flag for stability failure in the plasma protein binding assay (1 = fail, 0 = pass); for Fstable.Med: median fraction stable in plasma, UC assay Level4
[5] = In vitro-in vivo extrapolation (IVIVE) to Css and administered equivalent dose (AED); set-up: species or system human; conditions: for Clhep: IVIVE, hepatocyte Clint scaled to whole-liver clearance; for AED: administered equivalent dose from LOEC and Css; for Fub: fub=fup/(B:P), Fub set to 1 if needed; for CLint: scaled with HPGL 110 mill cells/g, Vl 1596 g
Method in brief: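 Administered equivalent doses come from pairing modelled Css with literature in vitro LOECs. Css itself is predicted by IVIVE from experimental hepatic Clint, scaled up to whole-liver clearance in L/h, and experimental fraction unbound in plasma. That fraction was adjusted to unbound-in-blood via blood:plasma partitioning.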

[6] = hepatocyte incubation, Rep 1-3, start conc 1000 nM
[7] = buffer, no cells control, 0 vs 240 min, read-out: No Cells BkgdCl, Half Life
[8] = heat treated hepatocytes, Rep 1-3
[9] = BioSeek lowest-observed effect concentration used for AED
[10] = minimum lowest-observed effect concentration, BioSeek platform
[11] = Fraction Unbound (fu), Run-specific Avg, average of one UC run
[12] = Fraction Unbound (fu), individual replicates A, B, C of the UC run named in c8
[13] = Mean Fu, mean fraction unbound in human plasma over all UC replicates/runs
[14] = Mean fu, fraction unbound in human plasma, ultracentrifugation, some values based on eLOQ
[15] = mean T5hr/T1hr ratio in plasma over all replicates/runs
[16] = Assuming 1 mg/kg/day dose rate, BW 70 kg
[17] = human steady-state plasma concentration, assuming 1 mg/kg/day dosage

## OCC(F)(F)C(F)(F)C(F)(F)C(F)(F)C(F)(F)C(F)(F)C(F)(F)C(F)(F)CO [1H,1H,10H,10H-Perfluorodecane-1,10-diol]
[1]; [6]
  Concentration (nM), Time 0 min: 503.86 nM and 483.613 nM and 411.089 nM
  Concentration (nM), Time 15 min: 181.506 nM and 316.777 nM and 270.544 nM
  Concentration (nM), Time 30 min: 207.766 nM and 203.542 nM and 107.454 nM
[1]
  Linear Regression Results, Best-Fit Values, Slope: -0.0283
[1]; pooled human hepatocyte suspensions, 1 μM
  In Vitro Clint: 49.86 μL/min/10^6 cells
[2]; both sexes, human, heat treated hepatocytes control, 0 vs 240 min, read-out: HT BkgdCl, Half Life
  half-life at 1 μM: 4.63 h
[2]; [7]
  half-life at 1 μM: 3.43 h
[2]
  Hep_Stab_Fail: 0
[2]; heat treated hepatocytes control, 0 vs 240 min
  HT BkgdCl, Slope: -0.002496
[2]; [8]
  Negative Controls, Heat Treated (HT), concentration at 0 min: 370.156 nM and 373.519 nM and 421.129 nM
  Negative Controls, Heat Treated (HT), concentration at 240 min: 211.286 nM and 241.673 nM and 189.092 nM
[2]; no cells control, 0 vs 240 min
  No Cells BkgdCl, Slope: -0.003368
[2]; Rep 1-3
  Negative Controls, No cells (NC), concentration at 0 min: 394.883 nM and 393.112 nM and 400.596 nM
  Negative Controls, No cells (NC), concentration at 240 min: 205.477 nM and 157.76 nM and 169.683 nM
Human primary cells; [9]
  LOEC: 2.00 µM
Human primary cells; [10]
  LOEC: 2 µM
Human plasma [3]
  Aqueous Fraction: 3710.68 and 3362.14 and 3011.07
  Aqueous Fraction, Run-specific Avg: 3361.30
  fup: 0.0047
  Fup.Med: 0.00408
  Fup.point: 0.00496
Human plasma [3]; single replicate of one UC run (aqueous fraction / Time 5 hr)
  Fraction Unbound (fu), replicates A, B, C: 0.005168 and 0.005301 and 0.003775 and 0.006151 and 0.003351
In vitro; [11]
  fraction unbound: 0.84
In vitro; Fraction Unbound (fu), Run-specific Avg, average of one UC run (run date in line above)
  fraction unbound: 0.00495
In vitro; [12]
  fraction unbound: 0.83
In vitro; Fraction Unbound (fu), replicates A, B, C, single replicate of one UC run (aqueous fraction / Time 5 hr)
  fraction unbound: 0.00438
In vitro; [13]
  fraction unbound: 0.841
In vitro; Mean Fu, mean fraction unbound over all replicates and runs, UC assay, human plasma
  fraction unbound: 0.00469
In vitro; [14]
  fraction unbound: 0.0047
Human plasma [4]
  Time 1 hr: 7311.43 and 5462.42 and 6036.15
  Time 1 hr, Run-specific Avg: 6270.00
  Time 5 hr: 3659.49 and 4052.89 and 4429.19
  Time 5 hr, Run-specific Avg: 3856.19
  PPB_Stab_Fail: 0
  Fstable.Med: 0.997
Human plasma [4]; average of one UC run
  Stability (T5hr/ T1hr), Run-specific Avg: 0.615
Human plasma [4]; average of one UC run (run date in line above)
  Stability (T5hr/ T1hr), Run-specific Avg: 0.958
Human plasma [4]; [15]
  Mean Stability: 0.657
Human plasma [4]; mean T5hr/T1hr ratio over all replicates and runs, plasma
  Mean Stability: 1.003
Human plasma [4]; single replicate of one UC run
  Stability (T5hr/ T1hr), replicates A, B, C: 1.07 and 1.007 and 0.9333 and 0.9811 and 1.003 and 1.254
[5]; [16]
  Css: 0.68 mg/L and 1.47 uM
[5]
  Clhep: 4.275 L/h
  AED: 1.3619 mg/kg/day
  Fub: 0.008545
  CLint: 8753422 µL/min
[5]; [17]
  Css: 1.47 µM

## OCCC(F)(F)C(F)(F)C(F)(F)C(F)(F)F [4:2 Fluorotelomer alcohol]
[1]; [6]
  Concentration (nM), Time 0 min: 12113.7 nM and 7313.14 nM
  Concentration (nM), Time 15 min: 1692.86 nM and 1166.53 nM and 1804.74 nM
  Concentration (nM), Time 30 min: 339.856 nM and 404.508 nM and 458.803 nM
  Concentration (nM), Time 60 min: 47.9903 nM and 38.9317 nM and 58.7749 nM
  Concentration (nM), Time 120 min: 18.0283 nM and 18.9716 nM and 31.4203 nM
  Concentration (nM), Time 240 min: 21.5215 nM and 17.4089 nM and 13.0166 nM
[1]
  Linear Regression Results, Best-Fit Values, Slope: -0.02281
[2]; [7]
  half-life at 1 μM: 2.92 h
[2]
  Hep_Stab_Fail: 0
[2]; no cells control, 0 vs 240 min
  No Cells BkgdCl, Slope: -0.003956
[2]; Rep 1-3
  Negative Controls, No cells (NC), concentration at 0 min: 10000 nM
  Negative Controls, No cells (NC), concentration at 240 min: 3870 nM
Human primary cells; [9]
  LOEC: 2.00 µM
Human primary cells; [10]
  LOEC: 2 µM
Human plasma [3]
  Aqueous Fraction: 1744.82 and 3486.44 and 1261.67
  Aqueous Fraction, Run-specific Avg: 2164.31
  fup: 0.1680
  Fup.Med: 0.235
  Fup.point: 0.231
In vitro; [11]
  fraction unbound: 0.17
In vitro; [12]
  fraction unbound: 0.206
In vitro; [14]
  fraction unbound: 0.168
Human plasma [4]
  Time 1 hr: 13164.3 and 12271.8 and 13036
  Time 1 hr, Run-specific Avg: 12824.02
  Time 5 hr: 8478.66 and 10253.1 and 9709.96
  Time 5 hr, Run-specific Avg: 9365.87
  PPB_Stab_Fail: 0
  Fstable.Med: 0.21
Human plasma [4]; average of one UC run
  Stability (T5hr/ T1hr), Run-specific Avg: 0.730
Human plasma [4]; [15]
  Mean Stability: 0.740
[5]; [16]
  Css: 0.0547 mg/L and 0.21 uM
[5]
  Clhep: 51.672 L/h
  AED: 9.6507 mg/kg/day
  Fub: 0.3055
  CLint: 6620368 µL/min
[5]; [17]
  Css: 0.21 µM

## NC(=O)C(F)(F)C(F)(F)C(F)(F)F [Heptafluorobutyramide]
[1]; [6]
  Concentration (nM), Time 0 min: 988.297 nM and 784.776 nM and 618.66 nM
  Concentration (nM), Time 15 min: 550.618 nM and 957.096 nM and 714.95 nM
  Concentration (nM), Time 30 min: 499.471 nM and 561.118 nM and 588.537 nM
  Concentration (nM), Time 60 min: 417.033 nM and 313.668 nM and 348.927 nM
  Concentration (nM), Time 120 min: 201.833 nM and 266.362 nM and 226.765 nM
[1]
  Linear Regression Results, Best-Fit Values, Slope: -0.009975
[2]
  Hep_Stab_Fail: 0
[2]; Rep 1-3
  Negative Controls, No cells (NC), concentration at 240 min: 409.23 nM and 475.181 nM and 464.709 nM
Human primary cells; [9]
  LOEC: 20.00 µM
Human primary cells; [10]
  LOEC: 20 µM
Human plasma [3]
  Aqueous Fraction, Run-specific Avg: 5392.01
  fup: 0.6030
  Fup.Med: 0.566
  Fup.point: 0.601
In vitro; [11]
  fraction unbound: 0.6
In vitro; Fraction Unbound (fu), replicate A, individual replicate A of the UC run dated in c8
  fraction unbound: 0.667
In vitro; Fraction Unbound (fu), replicate B, individual replicate B of the UC run dated in c8
  fraction unbound: 0.57
In vitro; Fraction Unbound (fu), replicate C, individual replicate C of the UC run dated in c8
  fraction unbound: 0.565
In vitro; Mean Fu (fraction unbound), mean over all UC runs and replicates, human plasma
  fraction unbound: 0.603
In vitro; [13]
  fraction unbound: 0.603
In vitro; [14]
  fraction unbound: 0.603
In vitro; Mean fu, fraction unbound in human plasma, used for IVIVE
  fraction unbound: 0.603
Human plasma [4]
  Time 1 hr, Run-specific Avg: 9336.10
  Time 5 hr, Run-specific Avg: 8817.96
  PPB_Stab_Fail: 0
  Fstable.Med: 0.999
Human plasma [4]; average of one UC run
  Stability (T5hr/ T1hr), Run-specific Avg: 0.945
Human plasma [4]; [15]
  Mean Stability: 0.963
Human plasma [4]; mean over all UC runs and replicates, human plasma
  Mean Stability (T5hr/T1hr): 0.963
[5]; [16]
  Css: 0.0422 mg/L and 0.20 uM
[5]
  Clhep: 63.013 L/h
  AED: 101.0389 mg/kg/day
  Fub: 1
  CLint: 3502422 µL/min
[5]; [17]
  Css: 0.20 µM
